Source: patent US20250360167A1 (Keryx Biopharmaceuticals, Inc., priority 2013, published 2025)

Experiments:
Type in all cases: in vivo, human
C-Terminal FGF-23 = assay: Phase 2 trial (Example 2): C-terminal FGF-23; settings: n = 63
Text: The key secondary endpoints of the study were the mean changes in ferritin, hemoglobin and FGF-23 from baseline to the end of the 12-week treatment period versus placebo in the ITT group.

ferritin = assay: Phase 3 trial (Example 1): ferritin; design: Ferritin, Mean / Ferritin, Median / Ferritin, Change from Baseline, Mean / Ferritin, Change from Baseline, Median / Ferritin, LS Mean: unit not given here; settings: for Ferritin, Mean / Ferritin, Median / Ferritin, LS Mean / Ferritin, Change from Baseline, Mean / Ferritin, Change from Baseline, Median / Ferritin, Treatment Differences, LS Mean (KRX-0502) − LS Mean (control), (SE): Table 15
Text: Iron studies including serum iron, ferritin, TSAT, and total iron-binding capacity were done at Screening (Visit 0); at the Randomization Visit (Visit 4); at Visits 7 (Week 4), 9 (Week 8), 11 (Week 12), 12 (Week 16), 13 (Week 20), 14 (Week 24), 15 (Week 28), 16 (Week 32), 17 (Week 36), 18 (Week 40), 19 (Week 44), 20 (Week 48), and 21 (Week 52) of the 52-week Safety Assessment Period; and at Visit 25 (Week 56) of the Efficacy Assessment Period.
Change from baseline in ferritin at Week 52 as compared to baseline (Visit 4). This variable will be analyzed using LOCF methodology. ANCOVA will be employed. The model will include treatment (fixed effect), and baseline (covariate). A sensitivity analysis will be performed using MMRM method.
• 1. Change in serum calcium concentration at Weeks 12, 24, 36, 48, and 52 as compared to baseline (Visit 4). This variable will be analyzed using LOCF methodology. ANCOVA will be employed. The model will include treatment (fixed effect), and baseline (covariate). • 2. Change in ferritin, and TSAT at Weeks 12, 24, 36 and 48 as compared to baseline (Visit 4). This variable will be analyzed using LOCF methodology. ANCOVA will be employed. The model will include treatment (fixed effect), and baseline (covariate). • 3. Change in serum iron and TIBC at Weeks 12, 24, 36, 48, and 52 as compared to baseline (Visit 4). This variable will be analyzed using LOCF methodology. ANCOVA will be employed. The model will include treatment (fixed effect), and baseline (covariate). • 4. Change in Ca x P product at Weeks 12, 24, 36, 48, and 52 as compared to baseline (Visit 4). This variable will be analyzed using LOCF methodology. ANCOVA will be employed. The model will include treatment (fixed effect), and baseline (covariate). • 5. Change in iPTH at Weeks 12, 36, 52, and 56 as compared to baseline (Visit 4). This variable will be analyzed using LOCF methodology. ANCOVA will be employed. The model will include treatment (fixed effect), and baseline (covariate). • 6. Change in serum […], vitamin A, vitamin B-12, vitamin E, vitamin K and folic acid at Weeks 12, 36, and 52 as compared to baseline (Visit 4). This variable will be analyzed using LOCF methodology. ANCOVA will be employed. The model will include treatment (fixed effect), and baseline (covariate). • 7. Change in serum bicarbonate concentration at Weeks 12, 36, and 52 as compared to baseline (Visit 4). This variable will be analyzed using LOCF methodology. ANCOVA will be employed. The model will include treatment (fixed effect), and baseline (covariate). • 8. Change in IV iron intake at Weeks 12, 24, 36, 48, and 52 as compared to baseline (Visit 4). This variable will be analyzed using LOCF methodology. ANCOVA will be employed. The model will include treatment (fixed effect), and baseline (covariate). • 9. Change in the use of EPO (ESA) administered at Weeks 12, 24, 36, 48, and 52 as compared to baseline (Visit 4). This variable will be analyzed using LOCF methodology. ANCOVA will be employed. The model will include treatment (fixed effect), and baseline (covariate). • 10. Change in the use of Vitamin D supplementation (and its analogs) and Sensipar (cinacalcet) at Weeks 12, 24, 36, 48, and 52 as compared to baseline (Visit 4). This variable will be analyzed using LOCF methodology. ANCOVA will be employed. The model will include treatment (fixed effect), and baseline (covariate). • 11. Change in LDL, HDL, and triglycerides at Weeks 12, 36, and 52 as compared to baseline (Visit 4). This variable will be analyzed using LOCF methodology. ANCOVA will be employed. The model will include treatment (fixed effect), and baseline (covariate).

TSAT = assay: Phase 2 trial (Example 2): TSAT
Text: Change in serum phosphorus, ferritin and TSAT levels from baseline to end of treatment after 12 weeks are the primary endpoints.
The co-primary efficacy endpoints of this trial were the mean changes in serum phosphorus and TSAT from baseline to the end of the 12-week treatment period versus placebo in the ITT group.

[1] = Day 0 Baseline, Safety Assessment Period

Q: With “iron (+3), x (1, 2, 3-propanetricarboxylic acid, 2-hydroxy-), y (H2O) [KRX-0502]” as the substance, how does the “Mean C-Terminal FGF-23, Baseline” value (C-Terminal FGF-23; Baseline) read?
A: 468 pg/mL

Q: What about the “Mean C-Terminal FGF-23, End of Treatment (Week 12)” value (C-Terminal FGF-23; Week 12, last observation carried forward) of the same substance?
A: 316 pg/mL

Q: What about the “Mean Ferritin, LS Mean Difference from Active Control Group at Week 52” value (ferritin; ANCOVA, Table C) of the same substance?
A: 286 ng/mL

Q: And the “Mean Ferritin” value (ferritin; Baseline (Day 0), Table C)?
A: 595 ng/mL

Q: And the “Ferritin, Mean” value (ferritin; [1])?
A: 595.00

Q: And the “Ferritin, Median” value (ferritin; [1])?
A: 587.00

Q: What about the “Mean Ferritin, Change from Baseline at Week 52” value (ferritin; Table C) of the same substance?
A: 302 ng/mL

Q: What about the “Ferritin, LS Mean” value (ferritin; Week 12, ANCOVA) of the same substance?
A: 757.75

Q: What about the “Mean Ferritin” value (ferritin; Week 12, LOCF, Table C) of the same substance?
A: 751 ng/mL

Q: What about the “Ferritin, Change from Baseline, Mean” value (ferritin; Week 12) of the same substance?
A: 158.88

Q: And the “Ferritin, Change from Baseline, Median” value (ferritin; Week 12)?
A: 123.00

Q: What about the “Ferritin, Mean” value (ferritin; Week 12) of the same substance?
A: 751.19

Q: And the “Ferritin, Median” value (ferritin; Week 12)?
A: 718.00

Q: And the “Ferritin, Treatment Differences, LS Mean (KRX-0502) − LS Mean (control), (SE)” value (from here on “Ferritin, Treatment Differences, LS Mean … (SE)”) (ferritin; Week 12)?
A: 112.95 (29.36)

Q: What about the “Ferritin, LS Mean” value (ferritin; Week 24, ANCOVA) of the same substance?
A: 852.52

Q: And the “Mean Ferritin” value (ferritin; Week 24, LOCF, Table C)?
A: 847 ng/mL

Q: What about the “Ferritin, Change from Baseline, Mean” value (ferritin; Week 24) of the same substance?
A: 252.49

Q: And the “Ferritin, Change from Baseline, Median” value (ferritin; Week 24)?
A: 220.00

Q: And the “Ferritin, Mean” value (ferritin; Week 24)?
A: 846.90

Q: What about the “Ferritin, Median” value (ferritin; Week 24) of the same substance?
A: 830.00

Q: And the “Ferritin, Treatment Differences, LS Mean … (SE)” value (ferritin; Week 24)?
A: 204.43 (32.84)

Q: And the “Ferritin, LS Mean” value (ferritin; Week 36, ANCOVA)?
A: 868.11

Q: What about the “Mean Ferritin” value (ferritin; Week 36, LOCF, Table C) of the same substance?
A: 863 ng/mL

Q: And the “Ferritin, Change from Baseline, Mean” value (ferritin; Week 36)?
A: 268.77

Q: And the “Ferritin, Change from Baseline, Median” value (ferritin; Week 36)?
A: 223.00

Q: What about the “Ferritin, Mean” value (ferritin; Week 36) of the same substance?
A: 863.18

Q: What about the “Ferritin, Median” value (ferritin; Week 36) of the same substance?
A: 818.00

Q: And the “Ferritin, Treatment Differences, LS Mean … (SE)” value (ferritin; Week 36)?
A: 241.24 (38.27)

Q: What about the “Ferritin, LS Mean” value (ferritin; Week 48, ANCOVA) of the same substance?
A: 887.41

Q: What about the “Mean Ferritin” value (ferritin; Week 48, LOCF, Table C) of the same substance?
A: 882 ng/mL

Q: What about the “Ferritin, Change from Baseline, Mean” value (ferritin; Week 48) of the same substance?
A: 287.69

Q: What about the “Ferritin, Change from Baseline, Median” value (ferritin; Week 48) of the same substance?
A: 233.00

Q: And the “Ferritin, Mean” value (ferritin; Week 48)?
A: 882.10

Q: What about the “Ferritin, Median” value (ferritin; Week 48) of the same substance?
A: 850.00

Q: What about the “Ferritin, Treatment Differences, LS Mean … (SE)” value (ferritin; Week 48) of the same substance?
A: 270.56 (39.85)

Q: What about the “Ferritin, LS Mean” value (ferritin; Week 52, ANCOVA) of the same substance?
A: 901.95

Q: And the “Mean Ferritin” value (ferritin; Week 52, LOCF, Table C)?
A: 897 ng/mL

Q: And the “Ferritin, Change from Baseline, Mean” value (ferritin; Week 52)?
A: 302.11

Q: What about the “Ferritin, Change from Baseline, Median” value (ferritin; Week 52) of the same substance?
A: 224.00

Q: What about the “Ferritin, Mean” value (ferritin; Week 52) of the same substance?
A: 897.12

Q: What about the “Ferritin, Median” value (ferritin; Week 52) of the same substance?
A: 858.00

Q: What about the “Ferritin, Treatment Differences, LS Mean … (SE)” value (ferritin; Week 52) of the same substance?
A: 285.65 (42.76)

Q: What about the “Mean Ferritin, % Change from Baseline” value (ferritin; Week 52, Table C) of the same substance?
A: 50.8%

Q: What about the “TSAT, Baseline” value (TSAT; Baseline, ITT group, n = 72) of the same substance?
A: 22%

Q: What about the “TSAT, End of Treatment (Week 12)” value (TSAT; Week 12, last observation carried forward, ITT group, n = 72) of the same substance?
A: 32%

Q: What about the “ending TSAT level at Visit 11 (Week 12)” value (TSAT; sample size assumption) of the same substance?
A: approximately 25%
